Data as given in patent publication US11899014B2, “Detection of analytes using live cells” (THE TRUSTEES OF COLUMBIA UNIVERSITY IN THE CITY OF NEW YORK, priority 2014, dated 2024).

Experiments:
[1] = biological target: S. cerevisiae native Ste2 receptor (Saccharomyces cerevisiae, UniProt D6VTK4); assay: Fungal GPCR activation in S. cerevisiae sensor strain, fluorescent reporter; type: cell-based; conditions: non-cognate peptide
[2] = test system: C. glabrata mating GPCR
[3] = test system: C. albicans mating receptor (Ca.Ste2) biosensor; assay: Paper-based dipstick assay, lycopene readout, C. albicans biosensor; type: cell-based, Candida albicans; conditions: 1 μM peptide
[4] = test system: M. oryzea mating GPCR; type: cell-based, Magnaporthe oryzea
[5] = test system: B. cinerea mating GPCR; type: cell-based, Botrytis cinerea; conditions: cognate synthetic peptide pheromone, fluorescent readout
[6] = test system: P. brasiliensis mating receptor (Pb.Ste2) biosensor; type: cell-based, Paracoccidioides brasiliensis
[7] = test system: F. graminearum mating GPCR; type: cell-based, Fusarium graminearum
[8] = biological target: endogenous GPCR Ste2 (Saccharomyces cerevisiae, UniProt D6VTK4); type: cell-based, S. cerevisiae; conditions: v1.0 lycopene reporter strain
Sequence of endogenous GPCR Ste2 (D6VTK4 whole entry): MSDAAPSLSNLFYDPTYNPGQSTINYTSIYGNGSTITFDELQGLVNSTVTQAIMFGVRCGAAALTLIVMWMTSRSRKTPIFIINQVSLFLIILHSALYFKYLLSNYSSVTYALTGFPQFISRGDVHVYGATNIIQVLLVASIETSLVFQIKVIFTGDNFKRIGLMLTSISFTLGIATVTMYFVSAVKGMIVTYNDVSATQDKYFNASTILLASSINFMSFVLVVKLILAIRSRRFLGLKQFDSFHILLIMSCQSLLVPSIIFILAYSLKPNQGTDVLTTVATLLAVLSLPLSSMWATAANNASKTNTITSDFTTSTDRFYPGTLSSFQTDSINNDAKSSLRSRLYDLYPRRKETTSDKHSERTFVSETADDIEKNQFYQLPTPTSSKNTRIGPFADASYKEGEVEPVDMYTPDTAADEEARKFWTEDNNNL

[9] = test system: C. albicans mating GPCR (Ca.Ste2); type: cell-based, Candida albicans; conditions: non-cognate peptide
[10] = test system: L. elongisporous mating GPCR; type: cell-based; conditions: cognate synthetic peptide pheromone, fluorescent readout

Sequence of S. cerevisiae native Ste2 receptor (D6VTK4 whole entry): as above

GFRLTNFGYFEPG [GFRLTNFGYFEPG (SEQ ID NO: 5)]
response of S. cerevisiae native Ste2 receptor to non-cognate pheromone [1]: not | response of C. glabrata receptor to the other species pheromone ([2]; non-cognate peptide): did not respond | time to maximal response in dipstick assay [3]: ≤ 12 h

QWCPRRGQPCW [QWCPRRGQPCW (SEQ ID NO: 17)]
EC50 [4]: 5000 nM

WCGRPGQPC [WCGRPGQPC (SEQ ID NO: 20)]
EC50 [5]: < 1 nM

WCTRPGQGC [WCTRPGQGC (SEQ ID NO: 11)]
time to maximal response in dipstick assay [6]: ≤ 12 h

WCWWKGQPCW [WCWWKGQPCW (SEQ ID NO: 14)]
EC50 [7]: 230 nM

WHWLQLKPGQPMY [WHWLQLKPGQPMY (SEQ ID NO: 24)]
time until reporter strain became visibly orange after exposure [8]: 36 h

WHWVRLRKGQGLF [WHWVRLRKGQGLF (SEQ ID NO: 8)]
response of C. albicans receptor to the other species pheromone [9]: did not respond | response of S. cerevisiae native Ste2 receptor to non-cognate pheromone [1]: responded | EC50 ([2]; cognate synthetic peptide pheromone, biosensor settings): 3600 nM

WMWTRYGRFSPV [WMWTRYGRFSPV (SEQ ID NO: 34)]
EC50 [10]: 51 nM
